Assay results reported in PubChem BioAssay AID2060892 (Molecular Pharmacology Branch, DTP, NCI, 2025).
pIC50: −log10 of the molar value.

System: HOP-62 complex spheroids with HUVEC/MSC, viability
Test: Anticancer human tumor HOP-62 cell line growth inhibition [RAS];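 further: spheroids exposed to agents for seven days before readout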;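 on viability, T/C: 100% = DMSO vehicle control viability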
Settings: for pIC50: curve of first compound; for viability, T/C: stronger effect = lower value
Procedure, shortened: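 Agents were tested in combination matrices in half-log decrements from a top concentration at or near clinical Cmax (10 microM if undetermined). Targets were multi-cell spheroids of tumour lines plus HUVEC and MSC stromal cells.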

[1] = second compound 0.000949 µM, first compound 0.00316 µM
[2] = second compound 0.000949 µM, first compound 0.01 µM
[3] = second compound 0.000949 µM, first compound 0.0316 µM
[4] = second compound 0.000949 µM, first compound 0.1 µM
[5] = second compound 0.000949 µM, first compound 0.316 µM
[6] = second compound 0.000949 µM, first compound 1 µM
[7] = second compound 0.003 µM, first compound 0.00316 µM
[8] = second compound 0.003 µM, first compound 0.01 µM
[9] = second compound 0.003 µM, first compound 0.0316 µM
[10] = second compound 0.003 µM, first compound 0.1 µM
[11] = second compound 0.003 µM, first compound 0.316 µM
[12] = second compound 0.003 µM, first compound 1 µM
[13] = second compound 0.00949 µM, first compound 0.00316 µM
[14] = second compound 0.00949 µM, first compound 0.01 µM
[15] = second compound 0.00949 µM, first compound 0.0316 µM
[16] = second compound 0.00949 µM, first compound 0.1 µM
[17] = second compound 0.00949 µM, first compound 0.316 µM
[18] = second compound 0.00949 µM, first compound 1 µM
[19] = second compound 0.03 µM, first compound 0.00316 µM
[20] = second compound 0.03 µM, first compound 0.01 µM
[21] = second compound 0.03 µM, first compound 0.0316 µM
[22] = second compound 0.03 µM, first compound 0.1 µM
[23] = second compound 0.03 µM, first compound 0.316 µM
[24] = second compound 0.03 µM, first compound 1 µM
[25] = second compound 0.0949 µM, first compound 0.00316 µM
[26] = second compound 0.0949 µM, first compound 0.01 µM
[27] = second compound 0.0949 µM, first compound 0.0316 µM
[28] = second compound 0.0949 µM, first compound 0.1 µM
[29] = second compound 0.0949 µM, first compound 0.316 µM
[30] = second compound 0.0949 µM, first compound 1 µM
[31] = second compound 0.3 µM, first compound 0.00316 µM
[32] = second compound 0.3 µM, first compound 0.01 µM
[33] = second compound 0.3 µM, first compound 0.0316 µM
[34] = second compound 0.3 µM, first compound 0.1 µM
[35] = second compound 0.3 µM, first compound 0.316 µM
[36] = second compound 0.3 µM, first compound 1 µM

CC1(C)CCC(Nc2ncc(C(F)(F)F)c(-c3c[nH]c4c(P(C)(C)=O)c(C#N)ccc34)n2)CN1 (stereo unspecified) + C=CC(=O)N1CCN(c2nc(OCC3CCCN3C)nc3c(F)c(-c4nc(N)cc(C)c4C(F)(F)F)c(Cl)cc23)C(C)C1
pIC50 (second compound 0.00316 µM): > 9.02
pIC50 (second compound 0.01 µM): 9.01
pIC50 (second compound 0.0316 µM): > 9.02
pIC50 (second compound 0.1 µM): > 9.02
pIC50 (second compound 0.316 µM): > 9.02
pIC50 (second compound 1 µM): 9.02
viability, T/C (second compound 0.00316 µM, first compound 0.000949 µM): 49.6%
viability, T/C (second compound 0.00316 µM, first compound 0.003 µM): 25%
viability, T/C (second compound 0.00316 µM, first compound 0.00949 µM): 19.8%
viability, T/C (second compound 0.00316 µM, first compound 0.03 µM): 15.8%
viability, T/C (second compound 0.00316 µM, first compound 0.0949 µM): 20.4%
viability, T/C (second compound 0.00316 µM, first compound 0.3 µM): 21.5%
viability, T/C (second compound 0.01 µM, first compound 0.000949 µM): 50.7%
viability, T/C (second compound 0.01 µM, first compound 0.003 µM): 24%
viability, T/C (second compound 0.01 µM, first compound 0.00949 µM): 20.3%
viability, T/C (second compound 0.01 µM, first compound 0.03 µM): 16.4%
viability, T/C (second compound 0.01 µM, first compound 0.0949 µM): 20%
viability, T/C (second compound 0.01 µM, first compound 0.3 µM): 19.8%
viability, T/C (second compound 0.0316 µM, first compound 0.000949 µM): 45.2%
viability, T/C (second compound 0.0316 µM, first compound 0.003 µM): 23.8%
viability, T/C (second compound 0.0316 µM, first compound 0.00949 µM): 19.6%
viability, T/C (second compound 0.0316 µM, first compound 0.03 µM): 15.4%
viability, T/C (second compound 0.0316 µM, first compound 0.0949 µM): 20.8%
viability, T/C (second compound 0.0316 µM, first compound 0.3 µM): 22.5%
viability, T/C (second compound 0.1 µM, first compound 0.000949 µM): 45.1%
viability, T/C (second compound 0.1 µM, first compound 0.003 µM): 22.6%
viability, T/C (second compound 0.1 µM, first compound 0.00949 µM): 21.2%
viability, T/C (second compound 0.1 µM, first compound 0.03 µM): 17.5%
viability, T/C (second compound 0.1 µM, first compound 0.0949 µM): 16%
viability, T/C (second compound 0.1 µM, first compound 0.3 µM): 20%
viability, T/C (second compound 0.316 µM, first compound 0.000949 µM): 48.8%
viability, T/C (second compound 0.316 µM, first compound 0.003 µM): 25.8%
viability, T/C (second compound 0.316 µM, first compound 0.00949 µM): 19.7%
viability, T/C (second compound 0.316 µM, first compound 0.03 µM): 16.8%
viability, T/C (second compound 0.316 µM, first compound 0.0949 µM): 21.2%
viability, T/C (second compound 0.316 µM, first compound 0.3 µM): 22.7%
viability, T/C (second compound 1 µM, first compound 0.000949 µM): 50.3%
viability, T/C (second compound 1 µM, first compound 0.003 µM): 20.7%
viability, T/C (second compound 1 µM, first compound 0.00949 µM): 18.4%
viability, T/C (second compound 1 µM, first compound 0.03 µM): 19.6%
viability, T/C (second compound 1 µM, first compound 0.0949 µM): 17.6%
viability, T/C (second compound 1 µM, first compound 0.3 µM): 19.1%

C=CC(=O)Nc1cc(Nc2nccc(-c3cn(C)c4ccccc34)n2)c(OC)cc1N(C)CCN(C)C + CCn1c(-c2cc(N3CCN(C)CC3)cnc2C(C)OC)c2c3cc(ccc31)-c1csc(n1)CC(NC(=O)C1CC1C)C(=O)N1CCCC(N1)C(=O)OCC(C)(C)C2
pIC50 (second compound 0.000949 µM): < 6.00
pIC50 (second compound 0.003 µM): 6.16
pIC50 (second compound 0.00949 µM): 6.56
pIC50 (second compound 0.03 µM): 8.20
pIC50 (second compound 0.0949 µM): > 8.50
pIC50 (second compound 0.3 µM): > 8.50
viability, T/C [1]: 119%
viability, T/C [2]: 114%
viability, T/C [3]: 85.8%
viability, T/C [4]: 120%
viability, T/C [5]: 106%
viability, T/C [6]: 66.4%
viability, T/C [7]: 97.4%
viability, T/C [8]: 88.6%
viability, T/C [9]: 74.4%
viability, T/C [10]: 89.5%
viability, T/C [11]: 75.9%
viability, T/C [12]: 37.4%
viability, T/C [13]: 76.6%
viability, T/C [14]: 62.5%
viability, T/C [15]: 59.7%
viability, T/C [16]: 66.5%
viability, T/C [17]: 47.3%
viability, T/C [18]: 33.2%
viability, T/C [19]: 52%
viability, T/C [20]: 49.2%
viability, T/C [21]: 42.7%
viability, T/C [22]: 43.3%
viability, T/C [23]: 26.6%
viability, T/C [24]: 30.1%
viability, T/C [25]: 40.2%
viability, T/C [26]: 44.1%
viability, T/C [27]: 33.8%
viability, T/C [28]: 32.1%
viability, T/C [29]: 26.4%
viability, T/C [30]: 24%
viability, T/C [31]: 42.1%
viability, T/C [32]: 35.6%
viability, T/C [33]: 37.4%
viability, T/C [34]: 33.7%
viability, T/C [35]: 22.9%
viability, T/C [36]: 22.7%

O=C(c1ccc(F)c(F)c1Nc1ccc(I)cc1F)N1CC(O)([C@@H]2CCCCN2)C1 + CCn1c(-c2cc(N3CCN(C)CC3)cnc2C(C)OC)c2c3cc(ccc31)-c1csc(n1)CC(NC(=O)C1CC1C)C(=O)N1CCCC(N1)C(=O)OCC(C)(C)C2
pIC50 (second compound 0.000949 µM): 6.50
pIC50 (second compound 0.003 µM): 6.95
pIC50 (second compound 0.00949 µM): 7.25
pIC50 (second compound 0.03 µM): > 8.50
pIC50 (second compound 0.0949 µM): > 8.50
pIC50 (second compound 0.3 µM): > 8.50
viability, T/C [1]: 119%
viability, T/C [2]: 113%
viability, T/C [3]: 78.7%
viability, T/C [4]: 75.9%
viability, T/C [5]: 51.2%
viability, T/C [6]: 27%
viability, T/C [7]: 86.3%
viability, T/C [8]: 73.3%
viability, T/C [9]: 56.9%
viability, T/C [10]: 56.5%
viability, T/C [11]: 39.3%
viability, T/C [12]: 37.3%
viability, T/C [13]: 65.5%
viability, T/C [14]: 52%
viability, T/C [15]: 67.8%
viability, T/C [16]: 38.5%
viability, T/C [17]: 28.5%
viability, T/C [18]: 30.9%
viability, T/C [19]: 49.9%
viability, T/C [20]: 45.9%
viability, T/C [21]: 33.1%
viability, T/C [22]: 32.2%
viability, T/C [23]: 29.2%
viability, T/C [24]: 37.3%
viability, T/C [25]: 36.7%
viability, T/C [26]: 35.3%
viability, T/C [27]: 32.9%
viability, T/C [28]: 41.7%
viability, T/C [29]: 32.8%
viability, T/C [30]: 37.5%
viability, T/C [31]: 37%
viability, T/C [32]: 39.1%
viability, T/C [33]: 37%
viability, T/C [34]: 38.7%
viability, T/C [35]: 32.9%
viability, T/C [36]: 38.3%
